For the test, the target named is T1, sGC (Rattus norvegicus, UniProt P20595).
T1 construct: expressed in transfected cells; host or cells: CHO reporter cell
T1 sequence (P19686 whole entry partner): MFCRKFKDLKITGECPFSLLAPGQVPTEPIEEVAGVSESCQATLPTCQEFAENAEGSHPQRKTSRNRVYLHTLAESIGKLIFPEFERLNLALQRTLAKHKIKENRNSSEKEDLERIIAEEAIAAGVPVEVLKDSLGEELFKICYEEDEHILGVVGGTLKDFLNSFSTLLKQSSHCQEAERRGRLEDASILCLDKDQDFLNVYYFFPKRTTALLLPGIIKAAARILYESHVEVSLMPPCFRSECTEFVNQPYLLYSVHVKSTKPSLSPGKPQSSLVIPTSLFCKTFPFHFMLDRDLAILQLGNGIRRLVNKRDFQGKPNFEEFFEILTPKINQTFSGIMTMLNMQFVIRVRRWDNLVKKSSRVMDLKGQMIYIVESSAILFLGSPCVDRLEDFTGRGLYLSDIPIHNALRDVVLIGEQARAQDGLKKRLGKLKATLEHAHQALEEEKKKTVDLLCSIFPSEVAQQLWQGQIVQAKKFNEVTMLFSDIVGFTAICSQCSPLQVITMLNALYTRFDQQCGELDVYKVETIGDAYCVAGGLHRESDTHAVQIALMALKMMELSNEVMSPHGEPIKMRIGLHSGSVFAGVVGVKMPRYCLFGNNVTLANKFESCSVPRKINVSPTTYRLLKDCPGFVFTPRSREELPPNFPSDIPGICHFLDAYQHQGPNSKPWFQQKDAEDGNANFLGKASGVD
T1 sequence (P20595 whole entry): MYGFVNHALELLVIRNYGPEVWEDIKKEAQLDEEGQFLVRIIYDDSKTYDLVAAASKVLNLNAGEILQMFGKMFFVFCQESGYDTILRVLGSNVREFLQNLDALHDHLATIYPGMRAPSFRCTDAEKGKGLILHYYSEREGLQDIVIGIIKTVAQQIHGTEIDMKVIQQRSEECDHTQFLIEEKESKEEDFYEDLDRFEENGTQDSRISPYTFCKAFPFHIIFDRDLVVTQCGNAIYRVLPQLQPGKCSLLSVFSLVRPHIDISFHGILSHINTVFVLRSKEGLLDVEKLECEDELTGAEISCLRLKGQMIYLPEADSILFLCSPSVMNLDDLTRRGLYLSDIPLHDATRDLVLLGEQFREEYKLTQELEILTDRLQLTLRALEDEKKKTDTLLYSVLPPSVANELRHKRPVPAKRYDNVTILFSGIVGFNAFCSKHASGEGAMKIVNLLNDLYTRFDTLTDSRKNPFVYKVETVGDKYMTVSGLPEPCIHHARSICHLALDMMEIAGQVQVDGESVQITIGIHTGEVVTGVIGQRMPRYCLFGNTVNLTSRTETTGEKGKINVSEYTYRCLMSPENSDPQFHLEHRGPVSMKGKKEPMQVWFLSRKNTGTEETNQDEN
The test can be described thus: Action at a recombinant guanylate cyclase reporter cell line (CHO reporter cell). As to conditions: CHO reporter cell in vitro. The format is cell-based. As to the method:
The cellular action of the compounds according to the invention is determined at a recombinant guanylate cyclase reporter cell line, as described in F. Wunder et al., Anal. Biochem. 339, 104-112 (2005).
As to `O=C(Nc1cccc(CC2(C(=O)O)CC2)c1F)C(c1ccc(Cl)cc1)C1CCCC1` (racemic) [Example 6, (+/−)-1-(3-{[(4-chlorophenyl)(cyclopentyl)acetyl]-amino}-2-fluorobenzyl)cyclopropanecarboxylic acid], the “MEC (minimum effective concentration), sGC-activating activity in the CHO reporter cell” value (“MEC (minimum effective concentration)” for short) is reported as 30 nM. Consider `O=C(Nc1cc(CC2(C(=O)O)CC2)ccc1F)C(c1ccc(Cl)cc1)C1CCCC1` (racemic) [Example 8, (+/−)-1-(3-{[(4-chlorophenyl)(cyclopentyl)acetyl]-amino}-4-fluorobenzyl)cyclopropanecarboxylic acid], for which the “MEC (minimum effective concentration)” value was 3 nM.

In the case of `CCc1ccc(C(C(=O)Nc2cc(CC3(C(=O)O)CC3)ccc2F)C(C)C(F)(F)F)cc1` (racemic) [Example 9, (+/−)-1-(3-{[2-(4-ethylphenyl)-4,4,4-trifluoro-3-methylbutanoyl]amino}-4-fluorobenzyl)-cyclopropanecarboxylic acid], the “MEC (minimum effective concentration)” value came to 1 nM. The same measure for `O=C(Nc1cc(CC2(C(=O)O)CC2)ccc1F)C(c1ccc(Cl)cc1F)C1CCCC1` (racemic) [Example 11, (+/−)-1-(3-{[(4-chloro-2-fluorophenyl)(cyclo-pentyl)acetyl]amino}-4-fluorobenzyl)-cyclopropanecarboxylic acid]: 1 nM. In the case of `O=C(Nc1cccc(CC2(C(=O)O)CC2)c1)C(c1ccc(C=C(F)F)cc1)C1CCCC1` (racemic) [Example 12, (+/−)-1-[3-({cyclopentyl[4-(2,2-difluorovinyl)-phenyl]acetyl}amino)benzyl]cyclopropane-carboxylic acid], the “MEC (minimum effective concentration)” value was 100 nM. On to `C=Cc1ccc(C(C(=O)Nc2cccc(CC3(C(=O)O)CC3)c2)C2CCCC2)cc1` (racemic) [Example 13, (+/−)-1-(3-{[cyclopentyl(4-vinylphenyl)acetyl]-amino}benzyl)cyclopropanecarboxylic acid], for which the “MEC (minimum effective concentration)” value worked out at 30 nM. The figure for `O=C(Nc1cccc(CC2(C(=O)O)CC2)c1)C(c1ccc(CC(F)F)cc1)C1CCCC1` (racemic) [Example 14, (+/−)-1-[3-({cyclopentyl[4-(2,2-difluoroethyl)-phenyl]acetyl}amino)benzyl]cyclopropane-carboxylic acid] is 100 nM; for `N#Cc1ccc(C(C(=O)Nc2cc(CC3(C(=O)O)CC3)ccc2F)C2CCCC2)cc1` (racemic) [Example 15, (+/−)-1-(3-{[(4-cyanophenyl)(cyclopentyl)acetyl]-amino}-4-fluorobenzyl)cyclopropanecarboxylic acid] it is 30 nM; for `O=C(Nc1cc(CC2(C(=O)O)CC2)ccc1F)C(c1ccc([N+](=O)[O-])cc1)C1CCCC1` (racemic) [Example 16, (+/−)-1-(3-{[(4-nitrophenyl)(cyclopentyl)acetyl]-amino}-4-fluorobenzyl)cyclopropanecarboxylic acid] it is 10 nM.

For the compound `O=C(Nc1cccc(CC2(C(=O)O)CC2)c1)C(c1ccc(C(F)(F)F)cc1)C1CCCC1` (racemic) [Example 53, (+/−)-1-[3-({Cyclopentyl[4-(trifluoromethyl)phenyl]acetyl}amino)benzyl]cyclopropanecarboxylic acid], the “MEC (minimum effective concentration)” value is on record as 10 nM. As to `O=C(Nc1cc(CC2(C(=O)O)CC2)ccc1F)C(c1ccc(Cl)cc1)C1CCCC1(F)F` (racemic) [Example 65, 1-(3-{[(4-Chlorophenyl)(2,2-difluorocyclopentyl)acetyl]amino}-4-fluorobenzyl)cyclopropane-carboxylic acid], the “MEC (minimum effective concentration)” value was determined as 5.3 nM.

Turning to `O=C(Nc1cc(CC2(C(=O)O)CC2)ccc1F)C(c1ccc(Cl)cc1)C1CCC(F)(F)C1` (single isomer, unassigned) [Example 78, 1-(3-{[(4-Chlorophenyl)(3,3-difluorocyclopentyl)acetyl]amino}-4-fluorobenzyl)cyclopropanecarboxylic acid], the “MEC (minimum effective concentration)” value is recorded as 3 nM. The same measure for `CC(C(C(=O)Nc1cccc(CC2(C(=O)O)CC2)c1)c1ccc(C(F)(F)F)cc1)C(F)(F)F` (single isomer, unassigned) [Example 80, 1-[3-({4,4,4-Trifluoro-3-methyl-2-[4-(trifluoromethyl)phenyl]butanoyl}amino)benzyl]cyclo-propanecarboxylic acid]: 3 nM. Consider `CC(C(C(=O)Nc1cccc(CC2(C(=O)O)CC2)c1)c1ccc(Cl)cc1)C(F)(F)F` (single isomer, unassigned) [Example 84, 1-(3-{[2-(4-Chlorophenyl)-4,4,4-trifluoro-3-methylbutanoyl]amino}benzyl)cyclopropane-carboxylic acid], for which the “MEC (minimum effective concentration)” value came to 20 nM.

For the compound `C[C@H]([C@H](C(=O)Nc1cc(C(O)C2(C(=O)O)CC2)ccc1Cl)c1ccc(Cl)cc1)C(F)(F)F` (single isomer, unassigned) [Example 103], the “MEC (minimum effective concentration)” value is 60 nM. With `C[C@H]([C@H](C(=O)Nc1cc(C(O)C2(C(=O)O)CC2)ccc1Cl)c1ccc(Cl)cc1)C(F)(F)F` (single isomer, unassigned) [Example 104], the “MEC (minimum effective concentration)” value was found to be 20 nM. The same measure for `C[C@H]([C@H](C(=O)Nc1cc(C(OC2CC2)C2(C(=O)O)CC2)ccc1Cl)c1ccc(Cl)cc1)C(F)(F)F` (single isomer, unassigned) [Example 113]: 0.3 nM; for `C[C@H]([C@H](C(=O)Nc1cc(C(OC2CC2)C2(C(=O)O)CC2)ccc1Cl)c1ccc(Cl)cc1)C(F)(F)F` (single isomer, unassigned) [Example 114]: 3 nM. With `O=C(Nc1cc(CC2(C(=O)O)CC2)ccc1F)[C@H](c1ccc(Cl)cc1)C1CCCC1(F)F` (single isomer, unassigned; (+)) [Example 67], the “MEC (minimum effective concentration)” value is listed as 3 nM. For the compound `C[C@H]([C@H](C(=O)Nc1cc(CC2(C(=O)O)CC2)ccc1F)c1ccc(F)cc1)C(F)(F)F` [Example 22, (+)-1-(4-fluoro-3-{[(2S,3R)-4,4,4-trifluoro-2-(4-fluorophenyl)-3-methylbutanoyl]amino}-benzyl)cyclopropanecarboxylic acid], the “MEC (minimum effective concentration)” value came out at 10 nM. The same measure for `CCc1ccc([C@@H](C(=O)Nc2cc(CC3(C(=O)O)CC3)ccc2F)[C@@H](C)C(F)(F)F)cc1` [Example 25, (+)-1-(3-{[(2S,3R)-2-(4-ethylphenyl)-4,4,4-tri-fluoro-3-methylbutanoyl]amino}-4-fluorobenzyl)-cyclopropanecarboxylic acid]: 0.3 nM. As to `C[C@H]([C@H](C(=O)Nc1cccc(CC2(C(=O)O)CC2)c1Cl)c1ccc(Cl)cc1)C(F)(F)F` [Example 27, (+)-1-(2-chloro-3-{[(2S,3R)-2-(4-chlorophenyl)-4,4,4-trifluoro-3-methylbutanoyl]amino}benzyl)-cyclopropanecarboxylic acid], the “MEC (minimum effective concentration)” value is 100 nM. As to `C[C@H]([C@H](C(=O)Nc1ccc(Cl)c(CC2(C(=O)O)CC2)c1F)c1ccc(Cl)cc1)C(F)(F)F` [Example 28, 1-(6-chloro-3-{[(2S,3R)-2-(4-chlorophenyl)-4,4,4-trifluoro-3-methylbutanoyl]amino}-2-fluorobenzyl)cyclopropanecarboxylic acid], the “MEC (minimum effective concentration)” value is given as 3 nM.

Regarding `O=C(Nc1cc(CC2(C(=O)O)CC2)ccc1F)C(c1ccc(Cl)cc1)C1CCC(F)(F)C1` (centres unmarked) [Example 34, 1-(3-{[(4-chlorophenyl)(3,3-difluorocyclopentyl)-acetyl]amino}-4-fluorobenzyl)cyclopropane-carboxylic acid], the “MEC (minimum effective concentration)” value is given as 10 nM.

`O=C(Nc1cc(CC2(C(=O)O)CC2)ccc1Cl)C(c1ccc(Cl)cc1)C1CCC(F)(F)C1` (centres unmarked) [Example 35, 1-(3-{[(4-chlorophenyl)(3,3-difluorocyclopentyl)-acetyl]amino}-4-chlorobenzyl)cyclopropane-carboxylic acid]: the “MEC (minimum effective concentration)” value turned out to be 10 nM. Turning to `CC(C)c1ccc([C@@H](C(=O)Nc2cc(CC3(C(=O)O)CC3)ccc2F)[C@@H](C)C(F)(F)F)cc1` [Example 37, 1-(4-fluoro-3-{[(2S,3R)-4,4,4-trifluoro-2-(4-isopropylphenyl)-3-methylbutanoyl]amino}-benzyl)cyclopropanecarboxylic acid], the “MEC (minimum effective concentration)” value is 0.1 nM.

Regarding `C[C@H]([C@H](C(=O)Nc1cc(CC2(C(=O)O)CC2)ccc1F)c1ccc(C(C)(C)C)cc1)C(F)(F)F` [Example 39, 1-(3-{[(2S,3R)-2-(4-tert-butylphenyl)-4,4,4-trifluoro-3-methylbutanoyl]amino}-4-fluorobenzyl)cyclopropanecarboxylic acid], the “MEC (minimum effective concentration)” value is on record as 0.3 nM.

Turning to `C[C@H]([C@H](C(=O)Nc1cc(CC2(C(=O)O)CC2)ccc1Cl)c1ccc(C(F)(F)F)cc1)C(F)(F)F` [Example 41, 1-[4-chloro-3-({(2S,3R)-4,4,4-trifluoro-3-methyl-2-[4-(trifluoromethyl)phenyl]butanoyl}amino)-benzyl]cyclopropanecarboxylic acid], the “MEC (minimum effective concentration)” value is 1 nM.

Regarding `CC(C(C(=O)Nc1cc(CC2(C(=O)O)CC2)ccc1Cl)c1ccc(CC(F)(F)F)cc1)C(F)(F)F` (centres unmarked) [Example 46, 1-[4-chloro-3-({4,4,4-trifluoro-3-methyl-2-[4-(2,2,2-trifluoroethyl)phenyl]butanoyl}amino)-benzyl]cyclopropanecarboxylic acid], the “MEC (minimum effective concentration)” value was determined as 1 nM.

The values are drawn from patent US9018258B2, “Substituted 1-benzylcycloalkylcarboxylic acids and the use thereof” (Bayer Intellectual Property GmbH, priority 2010, dated 2015).
